According to patent publication US20240335431A1, “1-H-PYRROLO[2,3-c]PYRIDINE COMPOUNDS” (Acerta Pharma B.V., priority 2023, published 2024):
Read-outs that look alike come from different tables or passages of the source.

Tests used:
MOLM-13 cells = test: Proliferation assay, MOLM-13 (CellTiter-Glo, 7 days); assay type: cell-based, human
Protocol: (§1) The anti-proliferative effect of compounds was tested in human leukaemia cell lines. The cell lines […] and MV4; 11 each harbor an MLL translocation expressing the MLL fusion proteins MLL-AF9 and MLL-AF4, respectively. Each also express the wildtype protein from the second allele. OCI-AML3 cells carrying the NPM1c gene mutation were also tested.
(§2) MOLM-13 and HEL cells were cultured in RPMI 1640 (Gibco) supplemented with 10% FBS (Gibco) and 1% Pen/Strep (Gibco). MV4; 11 cells were cultured in IMDM (Gibco) supplemented with 10% FBS (Gibco) and 1% Pen/Strep (Gibco). OCI-AML3 cells were cultured in MEMa (Gibco) supplemented with 20% FBS (Gibco) and 1% Pen/Strep (Gibco).
(§3) To assess proliferative effects, 125 MOLM-13 cells, 300 MV4; 11 cells, 75 OCI-AML3 cells, and 200 HEL cells were seeded in 40 μL media per well in 384-well ViewPlates (Perkin Elmer, 6007480). Cell seeding numbers were chosen based on growth curves to ensure linear growth throughout the experiments. Test compounds were added at 3.16-fold serial dilutions in DMSO from […] and DMSO content was normalized to 0.1%. Cells were incubated for 7 days at 37° C. and 5% CO2. A day 0 plate was seeded for each cell line and used as a standard control.
(§4) To measure cell viability, CellTiter-Glo 2.0 (Promega, G9242) luminescent growth indicator was used. 10 μL CellTiter-Glo reagent was added per well. Plates were placed on a plate shaker for 2 minutes in the dark and left to incubate off the shaker for another 8 minutes in the dark, for a total of 10 minutes. Plates were read using an EnVision plate reader (Perkin Elmer) using the Luminescence aperture and a measurement time of 0.1 second.
(§5) Data were analyzed in Genedata Screener®. IC50 values were determined by plotting % inhibition versus log compound concentration and using a one site dose response model. Raw data signals were normalized using 0.1% DMSO media only as background control, 0.1% DMSO with cells no compound as 100% viability (maximum signal), and day 0 0.1% DM with cells no compound as 0% viability (minimum signal).

HEL cells = test: Proliferation assay, HEL control cell line (CellTiter-Glo, 7 days); assay type: cell-based, human; details: Homo sapiens, HEL, 168 h
Protocol: as §1, §2, §3, §4, §5

[1] = Human liver microsomes (HLMs) intrinsic clearance assay; assay type: in vitro ADME; details: human, microsomes; for HLM CLint: 1 µM, pH 7.4
Protocol: Human liver microsomes (HLMs) were obtained from Corning (UltraPool 150 donors) at a concentration of 20 mg/mL protein. HLMs were stored at −80° C. until use and prior to use, thawed in a 37° C. water bath and then stored on wet ice. DMSO and NADPH were sourced from Solarbio S&T Co Ltd.
2 mL of 10 mM DMSO stock solutions of test compound were added to 198 mL acetonitrile to produce […] concentration. 1325 mL of 20 mg/mL HLM were added to 22260 mL of phosphate buffer to produce the HLM mixture. An 8.334 mg/mL solution of NADPH was prepared in 100 mmol/L pH 7.4 phosphate buffer.
222.5 mL of the HLM mixture and 25 mL of the 10 mM NADPH were added into the incubation plates (1 mL 96 well deep well plate from Thermo). The mixture was vortexed for 10 seconds at 1000 rpm. The incubation plate was pre-warmed in a water bath at 37° C. for 8 minutes. 2.5 mL of the […] stocks of test compound was added to initiate the reaction. The mix was vortexed for 12 seconds at 1000 rpm and incubated at 37° C. The incubation mixture (250 mL) contained 1 mg/mL HLM, 1 mmol/L NADPH and […].
The reaction was quenched by transferring 20 mL of the incubation mixture at 0.5, 5, 10, 15, 20 and 30 minutes into the quenching plate containing 100 mL of cold stop solution (acetonitrile containing internal standards). The plate was vortexed at 800 rpm for 2 minutes.
The quenching plates were centrifuged for 20 minutes at 4000 rpm and 4° C. 40 mL of the supernatant was transferred into a 96-well analysis plate containing 160 mL of water. The analysis plate was shaken at 1000 rpm for 2 minutes and the samples analysed by LC-MS/MS.
Peak areas were determined from extracted ion chromatograms. Percent parent remaining was calculated from peak area of test compound. The slope value, k, was determined by linear regression of the natural logarithm of percent parent remaining versus incubation time. The in vitro half-life (t1/2) was determined from the slope value by the equation: […]
Conversion of the in vitro half-life (min) into in vitro CLint (mL/min/mg proteins) was completed using the equation: […]

OCI-AML3 cells = test: Proliferation assay, OCI-AML3 (CellTiter-Glo, 7 days); assay type: cell-based, human; details: Homo sapiens, OCI-AML-3, 168 h
Protocol: as §1, §2, §3, §4, §5

MV4;11 cells = test: Proliferation assay, MV4;11 (CellTiter-Glo, 7 days); assay type: cell-based, human; details: Homo sapiens, MV4-11, 168 h, read-out: MV-4-11 IC50
Protocol: as §1, §2, §3, §4, §5

hERG = hERG (Homo sapiens (Human), UniProt Q12809); test: hERG assay 1 (standard), SyncroPatch 384PE; assay type: cell-based; details: CHO cells, room temperature, up to 40 uM
Chain of hERG (Q12809 whole entry): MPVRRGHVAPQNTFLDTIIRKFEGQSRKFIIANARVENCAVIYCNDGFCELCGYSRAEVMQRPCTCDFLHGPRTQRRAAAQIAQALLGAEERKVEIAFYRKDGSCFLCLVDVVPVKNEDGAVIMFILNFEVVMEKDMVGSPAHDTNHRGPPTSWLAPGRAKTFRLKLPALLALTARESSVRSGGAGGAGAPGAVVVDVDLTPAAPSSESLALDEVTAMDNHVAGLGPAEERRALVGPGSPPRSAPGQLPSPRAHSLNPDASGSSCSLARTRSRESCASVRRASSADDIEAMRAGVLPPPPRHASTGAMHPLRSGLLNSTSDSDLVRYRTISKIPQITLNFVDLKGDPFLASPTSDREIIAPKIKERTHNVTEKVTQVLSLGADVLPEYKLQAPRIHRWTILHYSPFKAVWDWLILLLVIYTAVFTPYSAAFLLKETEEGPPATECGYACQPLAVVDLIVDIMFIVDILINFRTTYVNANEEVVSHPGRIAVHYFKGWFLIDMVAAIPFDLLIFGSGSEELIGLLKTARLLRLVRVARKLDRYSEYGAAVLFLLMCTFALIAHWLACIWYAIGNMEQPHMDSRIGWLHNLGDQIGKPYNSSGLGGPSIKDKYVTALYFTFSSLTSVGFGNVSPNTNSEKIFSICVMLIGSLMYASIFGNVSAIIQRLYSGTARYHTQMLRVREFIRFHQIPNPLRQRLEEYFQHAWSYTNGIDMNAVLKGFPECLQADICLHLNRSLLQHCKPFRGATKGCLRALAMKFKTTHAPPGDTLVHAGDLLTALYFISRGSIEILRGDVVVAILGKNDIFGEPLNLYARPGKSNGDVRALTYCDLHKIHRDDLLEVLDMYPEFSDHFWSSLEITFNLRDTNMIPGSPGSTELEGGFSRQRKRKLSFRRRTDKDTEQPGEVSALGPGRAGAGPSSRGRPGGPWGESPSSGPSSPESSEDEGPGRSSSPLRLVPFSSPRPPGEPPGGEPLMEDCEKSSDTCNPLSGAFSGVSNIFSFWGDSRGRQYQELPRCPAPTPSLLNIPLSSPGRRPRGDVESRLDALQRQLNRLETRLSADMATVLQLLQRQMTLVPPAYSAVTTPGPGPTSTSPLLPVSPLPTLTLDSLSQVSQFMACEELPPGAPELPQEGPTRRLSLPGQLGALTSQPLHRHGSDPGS
Protocol: Experiments were performed on the SyncroPatch 384PE (Nanion Technologies) high throughput patch clamp platform at room temperature and used medium resistance chips with 4 patch holes per site. hERG-expressing Chinese hamster ovary K1 (CHO) cell line was used in assay-ready format and kept in liquid nitrogen until use. 2 vials of cells (10×10^6 cells per vial) were thawed and added to 20 ml Hepes-buffered saline solution (HBSS). HBSS comprised 140 mM NaCl, 4 mM KCl, 10 mM HEPES and 5 mM Glucose (pH 7.4). The internal patch clamp solution was KF 120 mM, KCl 20 mM, HEPES 10 mM, EGTA 10 mM, and 25 μM Escin (pH 7.2). After the initial sealing process was complete, a seal enhancer solution comprising HBSS supplemented with 10 mM CaCl2 and 1 mM MgCl2 was applied to cells. The external solution was then exchanged (4 times) for external patch clamp solution comprising NaCl 80 mM, KCl 4 mM, HEPES 10 mM, CaCl2 2 mM, MgCl2 1 mM, glucose 5 mM, and NMDG 60 mM (pH7.4). All compounds were dispensed from initial 10 mM DMSO stocks. An industry standard +60/−40 mV voltage protocol was applied every 15 seconds. Compounds were tested in a 6-point cumulative assay (final DMSO concentration 0.33%), with a concentration range of 139 nM to 40 uM. Data were analyzed in Genedata Screener®. IC50 values were determined by plotting % inhibition versus log compound concentration and using a one site dose response model. Only wells that passed acceptance criteria for this platform were used in this analysis (30 MegaOhm seal resistance, Z prime >0.4 and current size >0.2 nA).

muscarinic M2 receptor = muscarinic M2 receptor (Homo sapiens (Human), UniProt P08172); test: Muscarinic M2 receptor binding assay (assay 1); details: [3H]AF-DX 384 2 nM, Cheng Prusoff
Chain of muscarinic M2 receptor (P08172 whole entry): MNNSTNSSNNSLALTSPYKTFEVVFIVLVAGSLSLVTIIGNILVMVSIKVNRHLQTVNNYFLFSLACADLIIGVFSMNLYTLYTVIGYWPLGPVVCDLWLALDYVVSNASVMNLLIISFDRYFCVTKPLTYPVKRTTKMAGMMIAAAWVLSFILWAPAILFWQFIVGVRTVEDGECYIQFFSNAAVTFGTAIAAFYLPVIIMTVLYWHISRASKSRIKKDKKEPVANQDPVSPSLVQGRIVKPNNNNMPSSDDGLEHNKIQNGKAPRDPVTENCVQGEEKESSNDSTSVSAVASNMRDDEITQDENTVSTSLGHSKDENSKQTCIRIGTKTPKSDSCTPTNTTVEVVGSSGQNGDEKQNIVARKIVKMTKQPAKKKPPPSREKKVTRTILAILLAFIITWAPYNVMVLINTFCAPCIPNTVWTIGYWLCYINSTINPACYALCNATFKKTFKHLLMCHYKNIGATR
Protocol: Cell membrane homogenates (60 μg protein) were incubated for 60 minutes at 22° C. with 2 nM [3H]AF-DX 384 in the absence or presence of the test compound in a buffer containing 50 mM Tris-HCl (pH 7.4), 120 mM NaCl, 5 mM KCl, 5 mM MgCl2, and 1 mM EDTA. Nonspecific binding was determined in the presence of 1 μM atropine. Following incubation, the samples were filtered rapidly under vacuum through glass fiber filters (GF/B, Packard) presoaked with 0.3% PEI and rinsed several times with ice-cold 50 mM Tris-HCl using a 96-sample cell harvester (Unifilter, Packard). The filters were dried then counted for radioactivity in a scintillation counter (Topcount, Packard) using a scintillation cocktail (Microscint 0, Packard). The results were expressed as a percent inhibition of the control radioligand specific binding, from which the Ki was calculated. Data were analyzed using software developed at Cerep (Hill software) and validated by comparison with data generated by the commercial software SigmaPlot®4.0 for Windows® (© 1997 by SPSS Inc.). The inhibition constant, Ki, was calculated using the Cheng Prusoff equation:
where L=concentration of ligand in the assay, and Kd=affinity of the ligand for the receptor. The standard reference compound was methoctramine, which was tested in each experiment at several concentrations to obtain a competition curve from which its IC50 was calculated.

SMILES	IC50 (MOLM-13 cells)	IC50 (OCI-AML3 cells)	IC50 (MOLM-13 cells; Homo sapiens, MOLM-13, 168 h)	IC50 (MV4;11 cells)	microsomal CLint at 1 µM ([1]; pH 7.4, HLM CLint)	Ki (muscarinic M2 receptor)	HLM CLint [1]	IC50 (HEL cells)	microsomal CLint at 1 µM ([1]; pH 7.4, 1 mg/mL HLM, NADPH, read-out: HLM CLint)	IC50 (hERG)
Cc1c(C(=O)C2CCN(C(=O)[C@@H]3CCC4(CC4)N3)CC2)c2ccncc2n1-c1ccc(F)cc1C(=O)N1[C@H](C)COC[C@H]1C (single isomer, unassigned) [Example 58-1]	> 10 µM	–	–	–	–	–	–	> 10 µM	128 µL/min/mg	–
CC(C)N(C(=O)c1cc(F)ccc1-n1cc(C(=O)C2CN(C(=O)[C@H]3N[C@@H]4CC[C@H]3C4)C2)c2ccnnc21)C(C)C [Example 14, 2-(5-(1-((1R,3S,4S)-2-Azabicyclo[2.2.1]heptane-3-carbonyl)azetidine-3-carbonyl)-7H-pyrrolo[2,3-c]pyridazin-7-yl)-5-fluoro-N,N-diisopropylbenzamide 1·formic acid]	–	0.626 µM	0.476 µM	0.345 µM	38 µL/min/mg	–	–	> 10 µM	–	–
CCN(C(=O)c1cc(F)ccc1-n1cc(C(=O)C2CCN(C(=O)[C@H]3NC4CCC3CC4)CC2)c2ccncc21)C(C)C [Example 29, (S)-2-(3-(1-(2-Azabicyclo[2.2.2]octane-3-carbonyl)piperidine-4-carbonyl)-1H-pyrrolo[2,3-c]pyridin-1-yl)-N-ethyl-5-fluoro-N-isopropylbenzamide]	–	–	0.058 µM	0.057 µM	26 µL/min/mg	0.2 µM	–	> 10 µM	–	> 40 µM
CC(C)N(C(=O)c1cc(F)ccc1-n1cc(C(=O)[C@@H]2CCCN(C(=O)[C@H]3N[C@@H]4CC[C@H]3C4)CC2)c2ccncc21)C(C)C (relative stereo) [Example 45, 2-(3-((R*)-1-((1R,3S,4S)-2-Azabicyclo[2.2.1]heptane-3-carbonyl)azepane-4-carbonyl)-1H-pyrrolo[2,3-c]pyridin-1-yl)-5-fluoro-N,N-diisopropylbenzamide 1·formic acid]	–	–	0.109 µM	–	139 µL/min/mg	–	–	> 10 µM	–	–
C[C@@H]1COC[C@H](C)N1C(=O)c1cc(F)ccc1-n1cc(C(=O)C2CCN(C(=O)[C@H]3N[C@@H]4CC[C@H]3C4)CC2)c2ccncc21 [Example 35, (1-((1R,3S,4S)-2-Azabicyclo[2.2.1]heptane-3-carbonyl)piperidin-4-yl)(1-(2-((3R,5S)-3,5-dimethylmorpholine-4-carbonyl)-4-fluorophenyl)-1H-pyrrolo[2,3-c]pyridin-3-yl)methanone]	–	0.412 µM	0.297 µM	0.146 µM	5 µL/min/mg	–	–	> 10 µM	–	–
Cc1c(C(=O)C2CCN(C(=O)[C@@H]3CC[C@H](C)N3)CC2)c2ccncc2n1-c1ccc(F)cc1C(=O)N(C(C)C)C(C)C [Example 60, 5-Fluoro-N,N-diisopropyl-2-(2-methyl-3-(1-((2S,5S)-5-methylpyrrolidine-2-carbonyl)piperidine-4-carbonyl)-1H-pyrrolo[2,3-c]pyridin-1-yl)benzamide]	–	–	0.071 µM	0.088 µM	106 µL/min/mg	–	–	> 10 µM	–	> 40 µM
Cc1c(C(=O)C2CCN(C(=O)[C@@H]3CC[C@@H](C)N3)CC2)c2ccncc2n1-c1ccc(F)cc1C(=O)N(C(C)C)C(C)C [Example 61, 5-Fluoro-N,N-diisopropyl-2-(2-methyl-3-(1-((2S,5R)-5-methylpyrrolidine-2-carbonyl)piperidine-4-carbonyl)-1H-pyrrolo[2,3-c]pyridin-1-yl)benzamide]	–	–	0.092 µM	0.114 µM	83 µL/min/mg	–	–	> 10 µM	–	> 40 µM

More lines, main results first:

IC50 (MOLM-13 cells)	IC50 (OCI-AML3 cells)	IC50 (MOLM-13 cells; Homo sapiens, MOLM-13, 168 h)	IC50 (MV4;11 cells)	microsomal CLint at 1 µM ([1]; pH 7.4, HLM CLint)	Ki (muscarinic M2 receptor)	HLM CLint [1]	SMILES	IC50 (HEL cells)	microsomal CLint at 1 µM ([1]; pH 7.4, 1 mg/mL HLM, NADPH, read-out: HLM CLint)	IC50 (hERG)
3.27 µM	–	–	–	–	–	116 µL/min/mg	Cc1c(C(=O)[C@@H]2CCN(C(=O)[C@H]3NC[C@@H]4C[C@@H]43)[C@@H](C)C2)c2ccncc2n1-c1ccc(F)cc1C(=O)N(CC(F)(F)F)C(C)C (single isomer, unassigned) [Example 53-1, 2-(3-((2R*,4S*)-1-((1S,2S,5R)-3-Azabicyclo[3.1.0]hexane-2-carbonyl)-2-methylpiperidine-4-carbonyl)-2-methyl-1H-pyrrolo[2,3-c]pyridin-1-yl)-5-fluoro-N-isopropyl-N-(2,2,2-trifluoroethyl)benzamide]	> 10 µM	–	–
2.07 µM	–	–	–	–	–	183 µL/min/mg	CCN(C(=O)c1cc(F)ccc1-n1c(C)c(C(=O)C2CCN(C(=O)[C@@H]3CCC(C)(C)N3)CC2)c2ccncc21)C(C)C (single isomer, unassigned) [Example 50-1]	> 10 µM	–	–
